ChEMBL document CHEMBL4402608 (J Med Chem, 2020)

Tests used:
[1] = target: dopamine transporter (DAT) (Homo sapiens, UniProt Q01959); assay: Displacement of [3H]-Win35428 from human DAT expressed in stable HEK cell membranes at 10 uM after 90 mins by microbeta scintillation counting method relative to control; conditions: stable HEK cell membranes expressing human DAT, probe [3H]-Win35428
5HT1B receptor = 5HT1B receptor (Homo sapiens, UniProt P28222); assay: Displacement of [3H]5-CT from recombinant human 5HT1B receptor stably expressed in HEK cell membranes at 10 uM measured after 90 mins by microbeta scintillation counting method relative to control; conditions: probe [3H]5-CT
[2] = target: delta opioid receptor (DOR) (Homo sapiens, UniProt P41143); assay: Displacement of [3H]-DADLE from recombinant human DOR stably expressed in HEK cell membranes at 10 uM measured after 90 mins by microbeta scintillation counting method relative to control; conditions: HEK cell membranes stably expressing recombinant human DOR, probe [3H]-DADLE
[3] = target: Alpha-2B adrenergic receptor (Homo sapiens, UniProt P18089); assay: Displacement of [3H]-rauwolscine from recombinant human alpha2B adrenergic receptor transiently expressed in HEKT cell membranes at 10 uM measured after 90 mins by microbeta scintillation counting method relative to control; conditions: probe [3H]-rauwolscine
[4] = target: noradrenaline transporter (NET) (Homo sapiens, UniProt P23975); assay: Displacement of [3H]-Nisoxetine from human NET receptor expressed in stable HEK cell membranes at 10 uM after 90 mins by microbeta scintillation counting method relative to control; conditions: stable HEK cell membranes expressing human NET, probe [3H]-Nisoxetine
5HT1D receptor = 5HT1D receptor (Homo sapiens, UniProt P28221); assay: Displacement of [3H]5-CT from recombinant human 5HT1D receptor transiently expressed in HEKT cell membranes at 10 uM measured after 90 mins by microbeta scintillation counting method relative to control; conditions: probe [3H]5-CT
dopamine D1 receptor = dopamine D1 receptor (Homo sapiens, UniProt P21728); assay: in vitro; conditions: probe [3H]-SCH23390
[5] = target: 5-hydroxytryptamine receptor 2B (Homo sapiens, UniProt P41595); assay: Displacement of [3H]-LSD from recombinant human 5HT2B receptor stably expressed in HEK cell membranes measured after 90 mins by microbeta scintillation counting method
[6] = target: Sodium-dependent serotonin transporter (Homo sapiens, UniProt P31645); assay: Displacement of [3H]-citalopram from human SERT receptor expressed in stable HEK cell membranes after 90 mins by microbeta scintillation counting method
[7] = target: T1, Alpha-1B adrenergic receptor (Homo sapiens, UniProt P35368); assay: Displacement of [3H]-prazosin from recombinant human alpha1B adrenergic receptor transiently expressed in HEKT cell membranes at 10 uM measured after 90 mins by microbeta scintillation counting method relative to control; conditions: probe [3H]-prazosin
T1 sequence (P35368 whole entry): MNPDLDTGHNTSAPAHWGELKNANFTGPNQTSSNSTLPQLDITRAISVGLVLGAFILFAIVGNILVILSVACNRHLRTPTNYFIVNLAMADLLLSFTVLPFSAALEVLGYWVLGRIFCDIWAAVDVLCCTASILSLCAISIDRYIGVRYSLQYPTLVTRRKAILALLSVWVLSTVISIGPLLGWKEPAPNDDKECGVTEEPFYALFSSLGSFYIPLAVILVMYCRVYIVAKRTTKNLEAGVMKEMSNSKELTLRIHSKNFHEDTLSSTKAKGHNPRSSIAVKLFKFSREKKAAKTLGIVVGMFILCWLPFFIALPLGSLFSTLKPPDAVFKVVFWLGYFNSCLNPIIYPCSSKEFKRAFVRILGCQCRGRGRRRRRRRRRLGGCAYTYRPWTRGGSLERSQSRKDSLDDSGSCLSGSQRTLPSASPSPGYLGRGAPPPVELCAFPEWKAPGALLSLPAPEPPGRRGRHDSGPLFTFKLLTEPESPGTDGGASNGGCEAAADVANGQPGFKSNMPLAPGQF

5HT2A receptor = 5HT2A receptor (Homo sapiens, UniProt P28223); assay: Displacement of [3H]-Ketanserin from 5HT2A receptor (unknown origin) at 10 uM measured after 90 mins by microbeta scintillation counting method relative to control; conditions: probe [3H]-Ketanserin
Histamine H3 receptor [8] = target: T2, Histamine H3 receptor (Homo sapiens, UniProt Q9Y5N1); assay: Displacement of [3H]-alpha-methylhistamine from recombinant human histamine H3 receptor expressed in HEK Flp-In cell membranes at 10 uM measured after 90 mins by microbeta scintillation counting method relative to control; conditions: probe [3H]-alpha-methylhistamine
5HT2B receptor = 5HT2B receptor (Homo sapiens, UniProt P41595); assay: Displacement of [3H]-LSD from recombinant human 5HT2B receptor stably expressed in HEK cell membranes at 10 uM measured after 90 mins by microbeta scintillation counting method relative to control; conditions: probe [3H]-LSD
dopamine D5 receptor = dopamine D5 receptor (Homo sapiens, UniProt P21918); assay: Displacement of [3H]-SCH23390 from recombinant human D5 receptor transiently expressed in HEKT cell membranes at 10 uM measured after 90 mins by microbeta scintillation counting method relative to control; conditions: probe [3H]-SCH23390
Histamine H3 receptor [9] = target: T2, Histamine H3 receptor; assay: Displacement of [3H]-alpha-methylhistamine from recombinant human histamine H3 receptor expressed in HEK Flp-In cell membranes measured after 90 mins by microbeta scintillation counting method
[10] = target: kappa opioid receptor (KOR) (Homo sapiens, UniProt P41145); assay: Displacement of [3H]-U69593 from KOR (unknown origin) at 10 uM measured after 90 mins by microbeta scintillation counting method relative to control; conditions: probe [3H]-U69593
sigma1 receptor = sigma1 receptor (Homo sapiens, UniProt Q99720); assay: Displacement of [3H]-pentazocine from sigma1 receptor (unknown origin) at 10 uM after 90 mins by microbeta scintillation counting method relative to control; conditions: probe [3H]-pentazocine
mu opioid receptor (MOR) = mu opioid receptor (MOR) (Homo sapiens, UniProt P35372); assay: Displacement of [3H]-DAMGO from recombinant human MOR stably expressed in HEK cell membranes at 10 uM measured after 90 mins by microbeta scintillation counting method relative to control; conditions: HEK cell membranes stably expressing recombinant human MOR, probe [3H]-DAMGO
[11] = target: 5-hydroxytryptamine receptor 2C (Homo sapiens) (UniProt P28335); assay: Displacement of [3H]-Mesulergine from recombinant human 5HT2C receptor expressed in HEK cell membranes at 10 uM measured after 90 mins by microbeta scintillation counting method relative to control; conditions: probe [3H]-Mesulergine
[12] = target: Kappa-type opioid receptor (Homo sapiens, UniProt P41145); assay: Displacement of [3H]-U69593 from KOR (unknown origin) measured after 90 mins by microbeta scintillation counting method
Histamine H2 receptor = Histamine H2 receptor (Homo sapiens, UniProt P25021); assay: Displacement of [125I]-Iodo-aminopotentidine from human histamine H2 receptor expressed in stable HEK cell membranes after 90 mins by microbeta scintillation counting method
muscarinic M2 receptor = muscarinic M2 receptor (Homo sapiens, UniProt P08172); assay: Displacement of [3H]-QNB/[3H]-NMS from human muscarinic M2 receptor expressed in stable CHO cell membranes at 10 uM after 90 mins by microbeta scintillation counting method relative to control; conditions: probe [3H]-QNB/[3H]-NMS

| Structure (SMILES) | inhibition at […], 10 µM [1] [%] | inhibition at […], 10 µM (5HT1B receptor) [%] | inhibition at […], 10 µM [2] [%] | inhibition at […], 10 µM [3] [%] | inhibition at […], 10 µM [4] [%] | inhibition at […], 10 µM (5HT1D receptor) [%] | inhibition at […], 10 µM (dopamine D1 receptor) [%] | inhibition at […], 10 µM [7] [%] | inhibition at […], 10 µM (5HT2A receptor) [%] | inhibition at […], 10 µM (Histamine H3 receptor [8]) [%] | inhibition at […], 10 µM (5HT2B receptor) [%] | inhibition at […], 10 µM (dopamine D5 receptor) [%] | inhibition at […], 10 µM [10] [%] | inhibition at […], 10 µM (sigma1 receptor) [%] | inhibition at […], 10 µM (mu opioid receptor (MOR)) [%] | inhibition at […], 10 µM [11] [%] | Ki (Histamine H2 receptor) [nM] | inhibition at […], 10 µM (muscarinic M2 receptor) [%] | further results |
| --- | --- | --- | --- | --- | --- | --- | --- | --- | --- | --- | --- | --- | --- | --- | --- | --- | --- | --- | --- |
| CCCN(CC[C@]1(O)C[C@H](NC(=O)c2ccc3ccccc3c2)C1)[C@H]1CCc2nc(N)sc2C1 | > 50 | < 50 | < 50 | < 50 | > 50 | < 50 | < 50 | > 50 | > 50 | > 50 | > 50 | < 50 | > 50 | > 50 | > 50 | > 50 | 224 | < 50 | Ki ([5]; read-out: Ki): 1180 nM; Ki ([6]; read-out: Ki): 32 nM; Ki (Histamine H3 receptor [9]; read-out: Ki): 893 nM; Ki ([12]; read-out: Ki): > 10000 nM |
| CCCN[C@H]1CCc2nc(N)sc2C1 [PRAMIPEXOLE] | < 50 | > 50 | > 50 | > 50 | < 50 | > 50 | > 50 | < 50 | < 50 | < 50 | < 50 | > 50 | < 50 | > 50 | < 50 | < 50 | 2680 | > 50 | Ki [5]: Not Active; Ki [6]: Not Active; Ki (Histamine H3 receptor [9]): Not Active; Ki [12]: Not Active |
